Results on six molecules are retold here after patent US20040122026A1, “Imidazolidine compounds” (Millennium Pharmaceuticals, Inc., priority 2002, published 2004).

Each structure is given as a SMILES string.

The target of the test is T1, CXCR3 (Homo sapiens, UniProt P49682).
T1 construct: expressed in transfected cells; membrane preparation
T1 sequence (P49682 1-368): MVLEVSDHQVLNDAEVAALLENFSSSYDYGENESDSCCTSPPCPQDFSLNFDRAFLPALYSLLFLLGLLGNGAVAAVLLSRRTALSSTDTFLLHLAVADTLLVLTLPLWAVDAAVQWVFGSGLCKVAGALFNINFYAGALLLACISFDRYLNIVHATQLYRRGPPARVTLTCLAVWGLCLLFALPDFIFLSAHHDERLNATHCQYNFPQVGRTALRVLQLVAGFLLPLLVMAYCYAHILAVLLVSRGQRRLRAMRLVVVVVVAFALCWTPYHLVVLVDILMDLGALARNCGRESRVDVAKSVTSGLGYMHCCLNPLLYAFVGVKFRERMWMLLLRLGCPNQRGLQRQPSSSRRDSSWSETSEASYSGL
Nature of the test: CXCR3/IP-10 radioligand binding (125I-IP-10 competition on CXCR3.L1/2 cell membranes). The note with it: test compound 10 μmol/L, 125I-labeled IP-10 binding to CXCR3.L1/2 transfectant cell membranes. The text has this:
The activity of the compounds of the present invention can be assessed using a suitable assay, such as a receptor binding assay, a chemotaxis assay, an extracellular acidification assay or a calcium flux assay (see, for example, Hesselgesser et al., J. Biol. Chem., 273(25): 15687-15692 (1998) and WO 98/02151). For example, as described herein, small organic molecule antagonists of CXCR3/IP-10 binding have been identified utilizing cells engineered to express recombinant human CXCR3 (CXCR3.L1/2) and which bind ^125I-IP-10 and chemotax in response to IP-10, Mig, or I-TAC. Specifically, a high through-put receptor binding assay, which monitors ^125I-IP-10 biding to CXCR3.L1/2 cell membranes, was used to identify small molecule antagonists. Binding assays can be performed using other ligands of CXCR3, such as, Mig, and/or I-TAC.
CXCR3/IP-10 Radioligand Binding:
CXCR3.L1/2 Membrane Preparation:
CXCR3.L1/2 cells were pelleted by centrifugation and stored at −80° C. The cells were lysed by thawing and resuspending at about 1.5×10^7 cells/mL in a hypotonic buffer (5 mmol/L HEPES (pH 7.2), 2 mmol/L EDTA, 10 μg/mL each leupeptin, aprotinin, and chymostatin, and 100 μg/mL PMSF (all from Sigma, St. Louis)). Nuclei and cellular debris are removed by centrifugation ([…], at 4° C.) for 10 min. The supernatant was transferred to chilled centrifuge tubes (Nalge, Rochester, N.Y.) and the membrane fraction was recovered by centrifugation (25,000 g at 4° C.) for 45 min. The membrane pellet was resuspended in freezing buffer (10 mmol/L HEPES (pH 7.2), 300 mmol/L Sucrose, 5 μg/mL each of leupeptin, aprotinin, and chymostatin, and 10 μg/mL PMSF). The total protein concentration was determined using a coomassie blue staining protein concentration assay kit (BioRad). The membrane preparations are aliquoted and stored at −80° C. until time of use.
CXCR3/IP-10 binding was performed in 96-well polypropylene plates (Costar) in a final volume of 0.1 mL of HBB buffer (50 mmol/L Hepes pH 7.4, 1 mmol/L CaCl2, 5 mmol/L MgCl2, 0.02% sodium azide, 0.5% BSA (bovine serum albumin)), containing 1 to 5 μg CXCR3.L1/2 transfectant cell membrane protein and 0.05 to 0.2 nmol/L of ^125I-labeled IP-10 (NEN, Boston, Mass.). Competition binding experiments were performed by including variable concentrations of unlabeled IP-10 or test compound. Nonspecific binding was determined following the addition of a 250 nmol/L unlabelled IP-10. Samples were incubated for 60 min at room temperature, and bound and free tracer (^125I-labeled IP-10) were separated by filtration through 96-well GF/B filterplates presoaked in 0.3% polyethyleneimine. The filters were washed in HBB further supplemented with 0.5 mol/L NaCl, dried, and the amount of bound radioactivity determined by liquid scintillation counting. The competition is presented as the percent specific binding as calculated by 100×[(S−B)/(T−B)], where S is the radioactivity bound for each sample, B is background binding, and T is total bound in the absence of competitors. Duplicates were used throughout the experiments.

For the molecule `CC(C)N(C(=O)CCN1CCN(C2Cc3cccc4cccc2c34)C1=C(C#N)C#N)c1cccc(CN2CCCCC2)c1` (stereo not drawn) [Compound 15, N-Isopropyl-N-[3-(piperidinomethyl)phenyl]-3-[3-(1-acenaphthenyl)-2-dicyanomethylideneimidazolidin-1-yl]propionamide], the inhibition (usually the drop in the measured response relative to a control, in per cent) at 10 µM (results Table 6) was found to be 95%.

In the case of `Cc1cc(C)cc(CN2CCN(CCC(=O)N(CCCF)c3cccc(CN4CCCCC4)c3)C2=C(C#N)C#N)c1` [Compound 11, N-(3-Fluoropropyl)-N-[3-(piperidinomethyl)phenyl]-3-[3-(3,5-dimethylbenzyl)-2-dicyanomethylideneimidazolidin-1-yl]propionamide], the inhibition at 10 µM (results Table 5) amounted to 95%. The same measure, in the same setting: under `Cc1cc(C)cc(CN2CCN(CCC(=O)N(Cc3nnn[nH]3)c3cccc(CN4CCCCC4)c3)C2=C(C#N)C#N)c1` [Compound 13, N-(1H-tetrazol-5-ylmethyl)-N-[3-(piperidinomethyl)phenyl]-3-[3-(3,5-dimethylbenzyl)-2-dicyanomethylideneimidazolidin-1-yl]propionamide] stands 67%. As for `Cc1cc(C)cc(CN2CCN(CCC(=O)N(c3cccc(CN4CCN(C)CC4)c3)C(C)C)C2=C(C#N)C#N)c1` [Compound 23, N-Isopropyl-N-[3-(4-methyl-1-piperazinylmethyl)phenyl]-3-[3-(3,5-dimethylbenzyl)-2-dicyanomethylideneimidazolidin-1-yl]propionamide], the % inhibition (as a rule, the percentage by which the read-out fell short of the control) at 10 μmol/L (results Table 6) is on record as 92%. Turning to `CCCNCc1cccc(N(CC)C(=O)CCN2CCN(Cc3cc(C)cc(C)c3)C2=C(C#N)C#N)c1` [Compound 21, N-Ethyl-N-[3-(propylaminomethyl)phenyl]-3-[3-(3,5-dimethylbenzyl)-2-dicyanomethylideneimidazolidin-1-yl]propionamide], where the note is “results Table 6”, the inhibition at 10 µM was found to be 71%.

Regarding `Cc1cc(C)cc(CN2CCN(CCC(=O)N(c3cccc(CN4CCCCC4)c3)C(C)C)C2=C(C#N)C#N)c1` [Compound 3, N-Isopropyl-N-[3-(piperidinomethyl)phenyl]-3-[3-(3,5-dimethylbenzyl)-2-dicyanomethylideneimidazolidin-1-yl]propionamide], the inhibition at 10 µM (results Table 5) is 106%.
